Consider six molecules from patent US10457679B2, “Imidazo[4,5-c]quinolin-2-one compounds and their use in treating cancer” (AstraZeneca AB, priority 2015, dated 2019).

Where two headings read alike, the source gives them in different places.

Holding throughout (assay type): cell-based
The target in one experiment is T1, ATM kinase (Homo sapiens, UniProt Q13315).
T1 construct: endogenous in cells; host or cells: HT29 cells (ECACC #85061109)
Nature of the experiment: Assay a) ATM cellular potency (pATM Ser1981 in X-ray irradiated HT29 cells). Conditions: HT29 cells, 1 h compound, X-ray ~600 cGy, pATM Ser1981; may be geometric mean of several tests; read-out: Assay a) ATM Cell IC50. As for the experimental part: The following assays were used to measure the effects of the compounds of the present invention: a) ATM cellular potency assay; b) PI3K cellular potency assay; c) mTOR cellular potency assay; d) ATR cellular potency assay. During the description of the assays, generally: • i. […] IC50 values were calculated using a smart fitting model in Genedata. […] Assay a): ATM Cellular Potency Rationale:
Most ATM molecules in the cell are rapidly phosphorylated on this site after doses of radiation as low as 0.5 Gy, and binding of a phosphospecific antibody is detectable after the introduction of only a few DNA double-strand breaks in the cell.
The rationale of the pATM assay is to identify inhibitors of ATM in cells. HT29 cells are incubated with test compounds for 1 hr prior to X-ray-irradiation. 1 h later the cells are fixed and stained for pATM (Ser1981). The fluorescence is read on the arrayscan imaging platform.
The following morning compounds of Formula (I) in 100% DMSO were added to assay plates by acoustic dispensing. After 1 h incubation at 37° C. and 5% CO2, plates (up to 6 at a time) were irradiated using the X-RAD 320 instrument (PXi) with equivalent to ˜600 cGy. Plates were returned to the incubator for a further 1 h. […] Then 20 μl of 0.1% Triton X100 in PBS was added and incubated for 20 minutes at r.t., to permeabalise cells. Then the plates were washed once with 50 μl/well PBS, using a Biotek EL405 plate washer.
After 1 h incubation at r.t., the plates were washed three times with 50 μl/well PBS, using a Biotek EL405 plate washer, and plates were sealed and kept in PBS at 4° C. until read. Plates were read using an ArrayScan VTI instrument, using an XF53 filter with 10× objective.

The target of the next experiment is T2, ATR kinase (Homo sapiens, UniProt Q13535).
T2 construct: measuring a decrease in phosphorylation of Chk1 (Ser 345) in HT29 cells; endogenous in cells; host or cells: HT29 cells (ECACC #85061109)
Kind of experiment: Assay b) ATR cellular potency (pChk1 Ser345 in HT29 cells after 4NQO). Conditions: HT29 cells, 4NQO, pChk1 Ser345; may be geometric mean of several tests; read-out: Assay b) ATR Cell IC50. The source says:
Assay b): ATR Cellular Potency
ATR is a PI 3-kinase-related kinase which phosphorylates multiple substrates on serine or threonine residues in response to DNA damage during or replication blocks. Chk1, a downstream protein kinase of ATR, plays a key role in DNA damage checkpoint control. Activation of Chk1 involves phosphorylation of Ser317 and Ser345 (the latter regarded as the preferential target for phosphorylation/activation by ATR).
The following morning compound of Formula (I) in 100% DMSO were added to assay plates by acoustic dispensing. After 1 h incubation at 37° C. and 5% CO2. 40 nl of 3 mM 4NQO in 100% DMSO was added to all wells by acoustic dispensing, except minimum control wells which were left untreated with 4NQO to generate a null response control. Plates were returned to the incubator for a further 1 h. […] Then 20 μl of 0.1% Triton X100 in PBS was added and incubated for 10 minutes at r.t., to permeabalise cells. Then the plates were washed once with 50 μl/well PBS, using a Biotek EL405 plate washer.
After 2 h incubation at r.t., the plates were washed three times with 50 μl/well PBS, using a Biotek EL405 plate washer, and plates were then sealed with black plate seals until read. Plates were read using an ArrayScan VTI instrument, using an XF53 filter with 10× objective.

The next experiment addresses PI3K-α (Homo sapiens, UniProt P42336). Kind of experiment: Assay c) PI3K cellular potency (phospho-Akt T308 ELISA in BT474 cells). The conditions noted are these: BT474 cells, 2 h, phospho-AKT T308; may be geometric mean of several tests; read-out: Assay c) PI3Kα Cell IC50. From the text: Assay c): PI3K Cellular Potency
This assay was used to measure PI3K-α inhibition in cells. PDK1 was identified as the upstream activation loop kinase of protein kinase B (Akt 1), which is essential for the activation of PKB. Activation of the lipid kinase phosphoinositide 3 kinase (PI3K) is critical for the activation of PKB by PDK1.
Following ligand stimulation of receptor tyrosine kinases, PI3K is activated, which converts PIP2 to PIP3, which is bound by the PH domain of PDK1 resulting in recruitment of PDK1 to the plasma membrane where it phosphorylates AKT at Thr308 in the activation loop.
The aim of this cell-based mode of action assay is to identify compounds that inhibit PDK activity or recruitment of PDK1 to membrane by inhibiting PI3K activity. Phosphorylation of phospho-Akt (T308) in BT474c cells following treatment with compounds for 2 h is a direct measure of PDK1 and indirect measure of PI3K activity.
BT474 cells (human breast ductal carcinoma, ATCC HTB-20) were seeded into black 384 well plates (Costar, #3712) at a density of 5600 cells/well in DMEM containing 10% FBS and 1% glutamine and allowed to adhere overnight.
The following morning compounds in 100% DMSO were added to assay plates by acoustic dispensing. After a 2 h incubation at 37° C. and 5% CO2, the medium was aspirated and the cells were lysed with a buffer containing 25 mM Tris, 3 mM EDTA, 3 mM EGTA, 50 mM sodium fluoride, 2 mM Sodium orthovanadate, 0.27M sucrose, 10 mM β-glycerophosphate, 5 mM sodium pyrophosphate, 0.5% Triton X-100 and complete protease inhibitor cocktail tablets (Roche #04 693 116 001, used 1 tab per 50 ml lysis buffer).
After 20 minutes, the cell lysates were transferred into ELISA plates (Greiner #781077) which had been pre-coated with an anti total-AKT antibody in PBS buffer and non-specific binding was blocked with 1% BSA in PBS containing 0.05% Tween 20. Plates were incubated over night at 4° C. The next day the plates were washed with PBS buffer containing 0.05% Tween 20 and further incubated with a mouse monoclonal anti-phospho AKT T308 for 2 h. Plates were washed again as above before addition of a horse anti-mouse-HRP conjugated secondary antibody. Following a 2 h incubation at r.t., plates were washed and QuantaBlu substrate working solution (Thermo Scientific #15169, prepared according to provider's instructions) was added to each well. The developed fluorescent product was stopped after 60 minutes by addition of Stop solution to the wells. Plates were read using a Tecan Safire plate reader using 325 nm excitation and 420 nm emission wavelengths respectively. Except where specified, reagents contained in the Path Scan Phospho AKT (Thr308) sandwich ELISA kit from Cell Signalling (#7144) were used in this ELISA assay.

In the next experiment the target is T3, mTOR (Homo sapiens, UniProt P42345).
T3 construct: endogenous in cells; host or cells: MDA-MB-468 cells (ATCC HTB 132)
Nature of the experiment: Assay d) mTOR cellular potency (phospho-AKT Ser473 in MDA-MB-468 cells). On the procedure:
Assay d): mTOR Cellular Potency
This assay was used to measure mTOR inhibition in cells. The aim of the phospho-AKT cell based mechanism of action assay using the Acumen Explorer is to identify inhibitors of either PI3Kα or mTOR-Rictor (Rapamycin insensitive companion of mTOR). This is measured by any decrease in the phosphorylation of the Akt protein at Ser473 (AKT lies downstream of PI3Kα in the signal transduction pathway) in the MDA-MB-468 cells following treatment with compound. Method Details:
MDA-MB-468 cells (human breast adenocarcinoma #ATCC HTB 132) were seeded at 1500 cells/well in 40 μl of DMEM containing 10% FBS and 1% glutamine into Greiner 384 well black flat-bottomed plates. Cell plates were incubated for 18 h in a 37° C. incubator before dosing with compounds of Formula (I) in 100% DMSO using acoustic dispensing. Compounds were dosed in a 12 point concentration range into a randomised plate map. Control wells were generated either by dosing of 100% DMSO (max signal) or addition of a reference compound (a PI3K-β inhibitor) that completely eliminated the pAKT signal (min control). Compounds were then tested by one of two assay protocols A or B:
Plates were incubated at 37° C. for 2 h; cells were then fixed by the addition of 10 μl of a 3.7% formaldehyde solution. After 30 minutes the plates were washed with PBS using a Tecan PW384 plate washer. Wells were blocked and cells permeabilised with the addition of 40 μl of PBS containing 0.5% Tween20 and 1% Marvel™ (dried milk powder) and incubated for 60 minutes at r.t. The plates were washed with PBS containing 0.5% (v/v) Tween20 and 20 μl rabbit anti-phospho AKT Ser473 (Cell Signalling Technologies, #3787) in same PBS-Tween+1% Marvel™ was added and incubated overnight at 4° C.
Plates were washed 3 times with PBS+0.05% Tween 20 using a Tecan PW384. 20 μl of secondary antibody Alexa Fluor 488 anti-Rabbit (Molecular Probes, #A11008) diluted in PBS+0.05% Tween20 containing 1% Marvel™ was added to each well and incubated for 1 h at r.t. Plates were washed three times as before then 20 μl PBS added to each well and plates sealed with a black plate sealer.
The plates were read on an Acumen plate reader as soon as possible, measuring green fluorescence after excitation with 488 nm laser. Using this system IC50 values were generated and quality of plates was determined by control wells. Reference compounds were run each time to monitor assay performance.
The cell plates were then incubated for 2 h at 37° C. before being fixed by the addition of 20 μl 3.7% formaldehyde in PBS/A (1.2% final concentration), followed by a 30 minute room temperature incubation, and then a 2× wash with 150 μl PBS/A using a BioTek ELx406 platewasher. Cells were permeabilised and blocked with 20 μl of assay buffer (0.1% Triton X-100 in PBS/A+1% BSA) for 1 h at room temperature, and then washed 1× with 50 μl PBS/A. Primary phospho-AKT (Ser473) D9E XP® rabbit monoclonal antibody (#4060, Cell Signaling Technology) was diluted 1:200 in assay buffer, 20 μl added per well, and plates were incubated at 4° C. overnight. Cell plates were washed 3× with 200 μl PBS/T, then 20 μl 1:750 dilution in assay buffer of Alexa Fluor® 488 goat anti-rabbit IgG secondary antibody (#A11008, Molecular Probes, Life Technologies), with a 1:5000 dilution of Hoechst 33342, was added per well. Following a 1 h incubation at room temperature, plates were washed 3× with 200 μl PBS/T, and 40 μl PBS w/o Ca, Mg and Na Bicarb (Gibco #14190-094) was added per well.
Stained cell plates were covered with black seals, and then read on the Cell Insight imaging platform (Thermo Scientific), with a 10× objective. The primary channel (Hoechst blue fluorescence 405 nM, BGRFR_386_23) was used to Autofocus and to count number of events (this provided information about cytotoxicity of the compounds tested). The secondary channel (Green 488 nM, BGRFR_485_20) measured pAKT staining. […]

[1] abbreviates: pAKT Ser473, Protocol B (*); read-out: Assay d) mTOR Cell IC50.

T1 sequence (Q13315 whole entry): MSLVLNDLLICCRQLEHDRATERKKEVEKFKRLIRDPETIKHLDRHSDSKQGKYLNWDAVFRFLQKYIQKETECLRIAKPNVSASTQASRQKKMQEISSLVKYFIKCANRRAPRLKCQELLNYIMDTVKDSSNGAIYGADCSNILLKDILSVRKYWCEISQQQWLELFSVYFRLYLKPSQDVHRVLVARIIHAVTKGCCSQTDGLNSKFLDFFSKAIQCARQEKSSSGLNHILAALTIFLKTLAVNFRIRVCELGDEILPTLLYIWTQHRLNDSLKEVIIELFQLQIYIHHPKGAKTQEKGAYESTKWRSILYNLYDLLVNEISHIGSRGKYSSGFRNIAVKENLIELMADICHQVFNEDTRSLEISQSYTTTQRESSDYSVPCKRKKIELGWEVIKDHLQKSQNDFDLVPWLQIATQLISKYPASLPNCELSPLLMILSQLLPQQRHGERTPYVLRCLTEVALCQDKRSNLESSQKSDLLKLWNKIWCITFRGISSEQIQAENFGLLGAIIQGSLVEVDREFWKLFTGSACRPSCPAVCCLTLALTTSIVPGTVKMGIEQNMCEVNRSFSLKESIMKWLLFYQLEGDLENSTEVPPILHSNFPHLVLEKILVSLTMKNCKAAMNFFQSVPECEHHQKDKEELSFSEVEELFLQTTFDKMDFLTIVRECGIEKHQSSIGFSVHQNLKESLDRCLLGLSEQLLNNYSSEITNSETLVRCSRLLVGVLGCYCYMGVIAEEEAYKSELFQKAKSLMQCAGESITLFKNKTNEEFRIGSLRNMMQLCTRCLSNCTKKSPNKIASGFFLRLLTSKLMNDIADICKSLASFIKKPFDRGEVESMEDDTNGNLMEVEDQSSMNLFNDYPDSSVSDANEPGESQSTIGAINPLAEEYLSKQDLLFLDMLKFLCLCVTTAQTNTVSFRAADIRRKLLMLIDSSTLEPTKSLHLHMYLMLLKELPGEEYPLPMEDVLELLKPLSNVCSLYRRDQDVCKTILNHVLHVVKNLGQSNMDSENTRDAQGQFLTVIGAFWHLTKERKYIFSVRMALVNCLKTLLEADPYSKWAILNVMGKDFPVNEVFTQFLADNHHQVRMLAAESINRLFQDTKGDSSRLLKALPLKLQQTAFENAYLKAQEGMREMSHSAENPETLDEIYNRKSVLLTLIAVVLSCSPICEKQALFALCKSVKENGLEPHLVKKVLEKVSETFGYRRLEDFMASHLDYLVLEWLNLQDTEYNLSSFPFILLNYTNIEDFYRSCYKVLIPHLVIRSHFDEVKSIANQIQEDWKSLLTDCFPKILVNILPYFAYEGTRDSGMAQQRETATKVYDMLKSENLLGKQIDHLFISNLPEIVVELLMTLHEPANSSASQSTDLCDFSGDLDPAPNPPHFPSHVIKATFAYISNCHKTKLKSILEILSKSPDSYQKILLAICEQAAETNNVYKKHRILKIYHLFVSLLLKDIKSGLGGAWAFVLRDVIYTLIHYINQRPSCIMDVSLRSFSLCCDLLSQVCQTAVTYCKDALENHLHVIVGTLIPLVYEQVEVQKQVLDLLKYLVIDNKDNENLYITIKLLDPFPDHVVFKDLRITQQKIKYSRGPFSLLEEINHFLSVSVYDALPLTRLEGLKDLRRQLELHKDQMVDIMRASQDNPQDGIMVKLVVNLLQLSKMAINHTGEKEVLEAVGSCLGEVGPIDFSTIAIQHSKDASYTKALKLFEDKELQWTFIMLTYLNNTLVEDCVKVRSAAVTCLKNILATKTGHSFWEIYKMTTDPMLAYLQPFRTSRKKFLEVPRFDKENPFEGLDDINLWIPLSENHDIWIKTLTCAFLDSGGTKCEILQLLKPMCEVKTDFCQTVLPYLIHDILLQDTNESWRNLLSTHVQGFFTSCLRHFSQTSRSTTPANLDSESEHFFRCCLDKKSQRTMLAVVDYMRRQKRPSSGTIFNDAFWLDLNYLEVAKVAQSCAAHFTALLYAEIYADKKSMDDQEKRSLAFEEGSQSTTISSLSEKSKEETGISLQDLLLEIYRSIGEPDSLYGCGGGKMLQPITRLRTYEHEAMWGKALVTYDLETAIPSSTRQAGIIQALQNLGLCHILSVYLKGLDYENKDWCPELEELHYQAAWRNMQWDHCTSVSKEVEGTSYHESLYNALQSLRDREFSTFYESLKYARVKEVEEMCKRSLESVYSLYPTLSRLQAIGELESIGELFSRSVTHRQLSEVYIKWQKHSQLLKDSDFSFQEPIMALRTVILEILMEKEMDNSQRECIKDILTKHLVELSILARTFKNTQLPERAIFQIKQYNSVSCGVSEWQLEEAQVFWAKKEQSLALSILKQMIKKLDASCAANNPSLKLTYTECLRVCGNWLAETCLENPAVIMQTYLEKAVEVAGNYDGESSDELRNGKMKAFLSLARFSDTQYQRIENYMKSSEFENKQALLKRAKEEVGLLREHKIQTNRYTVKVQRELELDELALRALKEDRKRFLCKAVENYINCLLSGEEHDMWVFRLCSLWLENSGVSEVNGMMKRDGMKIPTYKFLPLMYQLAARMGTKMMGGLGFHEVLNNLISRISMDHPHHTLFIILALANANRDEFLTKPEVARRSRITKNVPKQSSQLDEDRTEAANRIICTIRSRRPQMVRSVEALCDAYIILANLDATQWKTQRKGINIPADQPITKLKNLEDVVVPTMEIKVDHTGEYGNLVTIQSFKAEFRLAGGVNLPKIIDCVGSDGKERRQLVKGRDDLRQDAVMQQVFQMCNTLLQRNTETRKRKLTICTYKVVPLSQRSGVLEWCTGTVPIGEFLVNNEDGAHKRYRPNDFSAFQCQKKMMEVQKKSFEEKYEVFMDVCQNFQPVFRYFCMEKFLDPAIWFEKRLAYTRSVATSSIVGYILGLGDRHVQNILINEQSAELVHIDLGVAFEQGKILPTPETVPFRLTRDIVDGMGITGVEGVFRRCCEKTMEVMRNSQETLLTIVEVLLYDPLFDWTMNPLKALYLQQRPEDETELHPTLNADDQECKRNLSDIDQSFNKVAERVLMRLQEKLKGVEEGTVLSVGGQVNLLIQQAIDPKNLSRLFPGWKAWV
PI3K-α, sequence (P42336 whole entry): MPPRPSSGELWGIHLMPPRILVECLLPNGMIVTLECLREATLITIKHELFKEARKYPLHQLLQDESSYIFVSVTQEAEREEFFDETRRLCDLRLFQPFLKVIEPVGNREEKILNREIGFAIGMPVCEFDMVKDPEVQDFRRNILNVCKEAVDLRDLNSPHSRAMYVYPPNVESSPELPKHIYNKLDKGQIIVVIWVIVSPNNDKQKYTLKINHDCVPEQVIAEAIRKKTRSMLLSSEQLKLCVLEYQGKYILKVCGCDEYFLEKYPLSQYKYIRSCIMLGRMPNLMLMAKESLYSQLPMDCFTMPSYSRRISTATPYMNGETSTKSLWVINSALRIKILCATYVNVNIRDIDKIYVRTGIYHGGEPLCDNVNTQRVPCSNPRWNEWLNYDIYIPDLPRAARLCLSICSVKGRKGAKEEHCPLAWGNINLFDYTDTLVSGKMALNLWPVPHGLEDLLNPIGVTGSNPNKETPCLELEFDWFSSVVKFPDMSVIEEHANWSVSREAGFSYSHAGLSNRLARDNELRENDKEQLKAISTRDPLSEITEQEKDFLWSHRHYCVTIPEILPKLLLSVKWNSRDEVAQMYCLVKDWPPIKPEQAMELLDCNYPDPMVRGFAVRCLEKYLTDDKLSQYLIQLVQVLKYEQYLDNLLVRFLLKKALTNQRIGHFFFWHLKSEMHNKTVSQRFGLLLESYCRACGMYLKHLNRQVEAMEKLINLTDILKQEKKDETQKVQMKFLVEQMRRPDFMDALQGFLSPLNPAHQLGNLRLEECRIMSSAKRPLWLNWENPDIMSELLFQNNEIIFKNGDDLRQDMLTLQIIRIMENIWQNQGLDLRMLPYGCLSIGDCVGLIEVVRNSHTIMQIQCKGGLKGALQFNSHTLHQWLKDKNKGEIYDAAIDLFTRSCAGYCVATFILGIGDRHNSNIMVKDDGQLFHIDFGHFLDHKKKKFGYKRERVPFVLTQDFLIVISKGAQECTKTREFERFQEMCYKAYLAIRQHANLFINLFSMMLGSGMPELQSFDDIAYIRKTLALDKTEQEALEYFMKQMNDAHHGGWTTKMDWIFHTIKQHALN

On to `Cn1c(=O)n(C2CC2)c2c3cc(-c4cnc5[nH]ccc5c4)ccc3ncc21` [CN102399218A Compound 62, reference compound], for which the values for the IC50 on ATM kinase and on ATR kinase were 135 nM and 55.3 nM, respectively.

In the case of `CC(C)n1c(=O)n(C)c2cnc3cc(F)c(-c4ccc(OCCCN(C)C)nc4)cc3c21` [Example 1, 8-[6-[3-(Dimethylamino)propoxy]-3-pyridyl]-7-fluoro-1-isopropyl-3-methyl-imidazo[4,5-c]quinolin-2-one], the IC50 on ATR kinase is above 30000 nM; on PI3K-α, 13400 nM; at mTOR (setting [1]) it was above 30000 nM.

Consider `CC(C)n1c(=O)n(C)c2cnc3ccc(-c4ccc(OCCCN5CCCCC5)nc4)cc3c21` [Example 5, 1-Isopropyl-3-methyl-8-[6-[3-(l-piperidyl)propoxy]-3-pyridyl]imidazo[4,5-c]quinolin-2-one], for which the results for the IC50 at PI3K-α and at mTOR (setting [1]) were 1240 nM and 6760 nM, respectively.

Consider `CC(C)n1c(=O)n(C)c2cnc3cc(F)c(-c4ccc(OCCCN(C)C)nc4F)cc3c21` [Example 11, 8-[6-[3-(dimethylamino)propoxy]-2-fluoro-3-pyridyl]-7-fluoro-1-isopropyl-3-methyl-imidazo[4,5-c]quinolin-2-one], for which the IC50 at ATM kinase is 2.28 nM; at ATR kinase it was above 30000 nM; on mTOR (pAKT Ser473, Protocol A (§); read-out: Assay d) mTOR Cell IC50), 23600 nM.

Turning to `CC(C)n1c(=O)n(C)c2cnc3ccc(-c4ccc(OCCCN5CCC5)nc4F)cc3c21` [Example 15, 8-[6-[3-(azetidin-1-yl)propoxy]-2-fluoro-3-pyridyl]-1-isopropyl-3-methyl-imidazo[4,5-c]quinolin-2-one], the IC50 was 2.14 nM at ATM kinase, above 30000 nM at ATR kinase and above 300 nM at mTOR (setting [1]).

Regarding `CC(C)n1c(=O)[nH]c2cnc3cc(F)c(-c4ccc(OCCCN(C)C)nc4)cc3c21` [Example 17, 8-[6-[3-(Dimethylamino)propoxy]-3-pyridyl]-7-fluoro-1-isopropyl-3H-imidazo[4,5-c]quinolin-2-one], the IC50 on ATM kinase is 4.61 nM; at ATR kinase it was above 30000 nM; at mTOR (setting [1]), above 10000 nM.
